Experimental data published in patent US20250250230A1, “HETEROCYCLIC COMPOUND” (TAKEDA PHARMACEUTICAL COMPANY LIMITED, priority 2022, published 2025).

Molecular target: T1, human orexin type 2 receptor (Homo sapiens, UniProt O43614)
T1 construct: expressed in transfected cells
T1 sequence (O43614 1-444): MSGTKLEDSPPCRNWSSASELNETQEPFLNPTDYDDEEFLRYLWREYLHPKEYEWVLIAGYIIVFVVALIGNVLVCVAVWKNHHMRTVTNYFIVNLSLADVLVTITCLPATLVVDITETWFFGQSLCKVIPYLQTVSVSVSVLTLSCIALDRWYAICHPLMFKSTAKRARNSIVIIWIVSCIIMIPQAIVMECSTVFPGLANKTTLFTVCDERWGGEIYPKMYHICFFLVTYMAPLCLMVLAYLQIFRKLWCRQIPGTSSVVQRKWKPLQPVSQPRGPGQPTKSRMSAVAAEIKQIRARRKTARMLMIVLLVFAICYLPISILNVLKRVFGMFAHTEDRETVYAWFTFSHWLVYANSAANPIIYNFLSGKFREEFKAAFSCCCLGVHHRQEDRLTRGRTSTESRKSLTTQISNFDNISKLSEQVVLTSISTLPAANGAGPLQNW
Test: Measurement of orexin type 2 receptor agonist activity (calcium fluorescence, Fluo-4 AM, FDSS)
Format: cell-based
Conditions: test compound 3 μM; CHO cells expressing human OX2 receptor; DMSO = 0%, orexin A (human) = 100%
Excerpt: To obtain a cell clone stably expressing human orexin type 2 receptor, human orexin type 2 receptor cDNA was inserted into pcDNA3.1(+) plasmid vector (Invitrogen), and a plasmid DNA for expression of human orexin type 2 receptor (pcDNA3.1(+)/hOX2R) was cloned. The plasmid DNA was introduced into CHO-K1 cell by an electroporation method, and human orexin type 2 receptor expressing clone cells were obtained by limiting dilution method by using G418 drug resistance as a selection marker.
CHO cells forcibly expressing human OX2 receptor were seeded in each well of 384 well black transparent bottom plate (BD Falcon) at 10,000 cells/well, and cultured for one day in a 5% CO2 incubator at 37° C. After removal of the medium in the cell plate, assay buffer A containing a calcium indicator (HBSS (Thermo Fisher Scientific), 20 mM HEPES (Thermo Fisher Scientific), 0.1% BSA (Sigma-Aldrich), 2.5 μg/mL Fluo-4 AM (DOJINDO Chemical), 0.08% Pluronic F127 (DOJINDO Chemical), 1.25 mM probenecid (DOJINDO Chemical)) was added at 30 μL/well. The plate was stood for 30 min in a 5% CO2 incubator at 37° C., and further stood at room temperature for 30 min. A test compound prepared by diluting with assay buffer B (HBSS, 20 mM HEPES, 0.1% BSA) was added at 10 μL/well, and the fluorescence value was measured by FDSSμCELL (Hamamatsu Photonics K.K.) every one sec for 1 min, and thereafter every two sec for […]. The activity (%) of the test compound was calculated assuming that variation in the fluorescence value when DMSO was added instead of the test compound was 0%, and variation in the fluorescence value when orexin A (human) (PEPTIDE INSTITUTE, INC.) was added at the final concentration of 10 nM was 100%.

SMILES | OX2R agonist activity (3 μM, %) [%]
CS(=O)(=O)NC1CCCN(C(=O)C2CC2c2sccc2-c2c(F)cccc2F)CC1 (racemic) [Example 221, a mixture of rac-N-[(4R)-1-{(1R,2R)-2-[3-(2,6-difluorophenyl)thiophen-2-yl]cyclopropane-1-carbonyl}azepan-4-yl]methanesulfonamide and rac-N-[(4S)-1-{(1R,2R)-2-[3-(2,6-difluorophenyl)thiophen-2-yl]cyclopropane-1-carbonyl}azepan-4-yl]methanesulfonamide] | 107
CS(=O)(=O)NCC12CC(C1)N(C(=O)[C@@H]1C[C@@]1(F)c1ccccc1-c1c(F)cccc1F)C2 [Example 359, N-({2-[(1S,2S)-2-(2′,6′-difluoro[1,1′-biphenyl]-2-yl)-2-fluorocyclopropane-1-carbonyl]-2-azabicyclo[2.1.1]hexan-4-yl}methyl)methanesulfonamide] | 94
CS(=O)(=O)NC1C2CN(C(=O)[C@@H]3C[C@@]3(F)c3ccccc3-c3c(F)cccc3F)CC2CC1(F)F (stereo partly drawn) [Example 377, N-{(3aR,4S,6aS)-2-[(1S,2S)-2-(2′,6′-difluoro[1,1′-biphenyl]-2-yl)-2-fluorocyclopropane-1-carbonyl]-5,5-difluorooctahydrocyclopenta[c]pyrrol-4-yl}methanesulfonamide, or N-{(3aS,4R,6aR)-2-[(1S,2S)-2-(2′,6′-difluoro[1,1′-biphenyl]-2-yl)-2-fluorocyclopropane-1-carbonyl]-5,5-difluorooctahydrocyclopenta[c]pyrrol-4-yl}methanesulfonamide] | 93
CS(=O)(=O)N[C@H]1CCN(C(=O)C2C(c3ccccc3-c3c(F)cccc3F)C2(F)F)C1 (stereo partly drawn) [Example 328, N-{(3S)-1-[(1R,3R)-3-(2′,6′-difluoro[1,1′-biphenyl]-2-yl)-2,2-difluorocyclopropane-1-carbonyl]pyrrolidin-3-yl}methanesulfonamide, or N-{(3S)-1-[(1R,3R)-3-(2′,6′-difluoro[1,1′-biphenyl]-2-yl)-2,2-difluorocyclopropane-1-carbonyl]pyrrolidin-3-yl}methanesulfonamide] | 94
CN(C)S(=O)(=O)N[C@H]1CCCN(C(=O)[C@@H]2C[C@H]2c2ccccc2-c2c(F)cccc2F)C1 [Example 302, N′-{(3S)-1-[(1R,2R)-2-(2′,6′-difluoro[1,1′-biphenyl]-2-yl)cyclopropane-1-carbonyl]piperidin-3-yl}-N,N-dimethylsulfuric diamide] | 97
CN(C)S(=O)(=O)NC[C@@H]1CCN1C(=O)[C@@H]1C[C@H]1c1ccccc1-c1c(F)cccc1F [Example 259, N′-({(2S)-1-[(1R,2R)-2-(2′,6′-difluoro[1,1′-biphenyl]-2-yl)cyclopropane-1-carbonyl]azetidin-2-yl}methyl)-N,N-dimethylsulfuric Diamide] | 98
Cc1ccc(C2CC2C(=O)N2CC[C@H](NS(C)(=O)=O)C2)c(-c2c(F)cccc2F)c1 (stereo partly drawn) [Example 318, N-{(3S)-1-[(1R,2R)-2-(2′,6′-difluoro-5-methyl [1,1′-biphenyl]-2-yl)cyclopropane-1-carbonyl]pyrrolidin-3-yl}methanesulfonamide, or N-{(3S)-1-[(1S,2S)-2-(2′,6′-difluoro-5-methyl[1,1′-biphenyl]-2-yl)cyclopropane-1-carbonyl]pyrrolidin-3-yl}methanesulfonamide] | 96
CS(=O)(=O)N[C@H]1CCCCN(C(=O)C2CC2c2ccccc2-c2c(F)cccc2F)C1 (mixture of isomers) [Example 184, a mixture of N-{(3S)-1-[(1R,2R)-2-(2′,6′-difluoro[1,1′-biphenyl]-2-yl)cyclopropane-1-carbonyl]azepan-3-yl}methanesulfonamide and N-{(3S)-1-[(1S,2S)-2-(2′,6′-difluoro[1,1′-biphenyl]-2-yl)cyclopropane-1-carbonyl]azepan-3-yl}methanesulfonamide] | 108
CN(C)S(=O)(=O)NC[C@@H]1[C@H](F)CN1C(=O)[C@@H]1C[C@@]1(F)c1ccc(F)cc1-c1c(F)cccc1F [Example 424, N′-({(2R,3R)-3-fluoro-1-[(1S,2S)-2-fluoro-2-(2′,5,6′-trifluoro[1,1′-biphenyl]-2-yl)cyclopropane-1-carbonyl]azetidin-2-yl}methyl)-N,N-dimethylsulfuric diamide] | 98
CS(=O)(=O)NC1COCCN(C(=O)C2CC2c2ccccc2-c2c(F)cccc2F)C1 (racemic) [Example 219, a mixture of rac-N-{(6R)-1-[(1R,2R)-2-(2′,6′-difluoro[1,1′-biphenyl]-2-yl)cyclopropane-1-carbonyl]-1,4-oxazepan-6-yl}methanesulfonamide and rac-N-{(6S)-4-[(1R,2R)-2-(2′,6′-difluoro[1,1′-biphenyl]-2-yl)cyclopropane-1-carbonyl]-1,4-oxazepan-6-yl}methanesulfonamide] | 96
CC1(NS(C)(=O)=O)CCN(C(=O)[C@@H]2C[C@@]2(F)c2ccccc2-c2c(F)cccc2F)C1 (stereo partly drawn) [Example 344, N-{(3R)-1-[(1S,2S)-2-(2′,6′-difluoro[1,1′-biphenyl]-2-yl)-2-fluorocyclopropane-1-carbonyl]-3-methylpyrrolidin-3-yl}methanesulfonamide, or N-{(3S)-1-[(1S,2S)-2-(2′,6′-difluoro[1,1′-biphenyl]-2-yl)-2-fluorocyclopropane-1-carbonyl]-3-methylpyrrolidin-3-yl}methanesulfonamide] | 95
CS(=O)(=O)NC(C1CC1)[C@@H]1CCN1C(=O)[C@@H]1C[C@@]1(F)c1ccccc1-c1c(F)cccc1F (stereo partly drawn) [Example 394, N-[(R)-cyclopropyl{(2S)-1-[(1S,2S)-2-(2′,6′-difluoro[1,1′-biphenyl]-2-yl)-2-fluorocyclopropane-1-carbonyl]azetidin-2-yl}methyl]methanesulfonamide, or N-[(S)-cyclopropyl{(2S)-1-[(1S,2S)-2-(2′,6′-difluoro[1,1′-biphenyl]-2-yl)-2-fluorocyclopropane-1-carbonyl]azetidin-2-yl}methyl]methanesulfonamide] | 106
CS(=O)(=O)NC1CCCN(C(=O)C2CC2c2sccc2-c2ccccc2F)CC1 (racemic) [Example 220, a mixture of rac-N-[(4R)-1-{(1R,2R)-2-[3-(2-fluorophenyl)thiophen-2-yl]cyclopropane-1-carbonyl}azepan-4-yl]methanesulfonamide and rac-N-[(4S)-1-{(1R,2R)-2-[3-(2-fluorophenyl)thiophen-2-yl]cyclopropane-1-carbonyl}azepan-4-yl]methanesulfonamide] | 79
CN(C)S(=O)(=O)NC1CCCN(C(=O)C2CC2c2ccccc2-c2c(F)cccc2F)CC1 (racemic) [Example 114, a mixture of rac-N′-{(4R)-1-[(1R,2R)-2-(2′,6′-difluoro[1,1′-biphenyl]-2-yl)cyclopropane-1-carbonyl]azepan-4-yl}-N,N-dimethylsulfuric diamide and rac-N′-{(4S)-1-[(1R,2R)-2-(2′,6′-difluoro[1,1′-biphenyl]-2-yl)cyclopropane-1-carbonyl]azepan-4-yl}-N,N-dimethylsulfuric diamide] | 102
CCS(=O)(=O)NC1CCCCN(C(=O)C2CC2c2ccccc2-c2c(F)cccc2F)C1 (racemic) [Example 159, a mixture of rac-N-{(3R)-1-[(1R,2R)-2-(2′,6′-difluoro[1,1′-biphenyl]-2-yl)cyclopropane-1-carbonyl]azepan-3-yl}ethanesulfonamide and rac-N-{(3S)-1-[(1R,2R)-2-(2′,6′-difluoro[1,1′-biphenyl]-2-yl)cyclopropane-1-carbonyl]azepan-3-yl}ethanesulfonamide] | 101
